Assay results as given in US9938269B2, “Inhibitor compounds of phosphodiesterase type 10A” (ABBVIE INC., priority 2011, dated 2018).
Counter-ions that a name gives are not always drawn.

Assays:
PDE10A (human) = biological target: T1, PDE10A (human) (Homo sapiens, UniProt Q9Y233); assay: Measurement of PDE activity (HTRF cAMP kit), human PDE10A; type: biochemical; details: PDE enzymatic reaction, substrate 20 nM for PDE10, 60 minutes at 29 C
T1 construct: purchased BPS Bioscience
In short: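 HTRF detection of cAMP left after hydrolysis, expressed as percent of uninhibited control to derive IC50. Reaction: serially diluted inhibitor mixed with recombinant enzyme, started with 20 nM cAMP, 60 min at 29 °C in Tris-HCl pH 7.5 buffer containing MgCl2 and BSA.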

[1] = Determination of the microsomal half-life, rat liver microsomes; details: for microsomal CLint at 0.5 μM: rat, liver microsomes, pH 7.4
[2] = Determination of the microsomal half-life, human liver microsomes; details: for microsomal CLint at 0.5 μM: human, liver microsomes, pH 7.4

T1 sequence (Q9Y233 whole entry): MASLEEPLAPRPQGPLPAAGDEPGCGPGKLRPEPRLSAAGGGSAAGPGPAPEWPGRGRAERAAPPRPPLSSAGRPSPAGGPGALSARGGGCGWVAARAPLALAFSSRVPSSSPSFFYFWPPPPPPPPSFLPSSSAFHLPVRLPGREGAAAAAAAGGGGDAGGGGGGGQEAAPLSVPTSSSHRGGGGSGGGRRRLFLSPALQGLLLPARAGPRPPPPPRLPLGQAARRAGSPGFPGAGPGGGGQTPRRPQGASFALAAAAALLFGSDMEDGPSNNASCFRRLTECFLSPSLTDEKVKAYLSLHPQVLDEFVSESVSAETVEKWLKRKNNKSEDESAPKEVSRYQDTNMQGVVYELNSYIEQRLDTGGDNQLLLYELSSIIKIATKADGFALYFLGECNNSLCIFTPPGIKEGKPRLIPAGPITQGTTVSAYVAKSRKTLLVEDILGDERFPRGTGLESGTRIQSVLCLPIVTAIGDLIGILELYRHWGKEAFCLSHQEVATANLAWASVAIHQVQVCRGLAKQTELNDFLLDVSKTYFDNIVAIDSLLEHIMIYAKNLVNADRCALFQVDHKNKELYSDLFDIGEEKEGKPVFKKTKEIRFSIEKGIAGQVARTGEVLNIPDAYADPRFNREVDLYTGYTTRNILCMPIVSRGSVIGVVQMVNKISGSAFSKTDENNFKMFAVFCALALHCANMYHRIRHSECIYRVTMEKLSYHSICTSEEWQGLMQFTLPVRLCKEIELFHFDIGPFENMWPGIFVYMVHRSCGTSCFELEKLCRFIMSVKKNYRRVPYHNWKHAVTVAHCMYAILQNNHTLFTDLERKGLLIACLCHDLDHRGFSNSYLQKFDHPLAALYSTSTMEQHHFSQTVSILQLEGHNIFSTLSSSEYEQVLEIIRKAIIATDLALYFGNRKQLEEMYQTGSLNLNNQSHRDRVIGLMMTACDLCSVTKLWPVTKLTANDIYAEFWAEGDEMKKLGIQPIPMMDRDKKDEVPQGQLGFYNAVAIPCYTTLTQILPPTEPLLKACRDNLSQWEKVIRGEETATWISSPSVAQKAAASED

| Compound | IC50 (PDE10A (human)) | microsomal CLint at 0.5 μM [1] | microsomal CLint at 0.5 μM [2] | Rat mCl (mikrosomal clearance) ([1]; rat liver microsomes, 0.5 μM test substance, 0.25 mg microsomal protein, pH 7.4, 37° C., NADPH) | Human mCl (mikrosomal clearance) ([2]; human liver microsomes, 0.5 μM test substance, 0.25 mg microsomal protein, pH 7.4, 37° C., NADPH) |
| --- | --- | --- | --- | --- | --- |
| O=C1c2c(cccc2N2CCOCC2)CN1CCc1ccc2ccccc2n1 [Example 99, 7-Morpholin-4-yl-2-(2-quinolin-2-yl-ethyl)-2,3-dihydro-isoindol-1-one] | < 100 nM | < 100 µL/min/mg | 100 to 220 µL/min/mg | – | – |
| O=C1c2c(cccc2-c2cn[nH]c2)CN1CCc1cn2ccccc2n1 [Example 242, 2-(2-Imidazo[1,2-a]pyridin-2-yl-ethyl)-7-(1H-pyrazol-4-yl)-2,3-dihydro-isoindol-1-one] | 100 to 200 nM | 100 to 220 µL/min/mg | < 100 µL/min/mg | – | – |
| Cc1ncccc1-c1cccc2c1C(=O)N(CCc1ccc3ccccc3n1)C2 [Example 86, 7-(2-Methyl-pyridin-3-yl)-2-(2-quinolin-2-yl-ethyl)-2,3-dihydro-isoindol-1-one] | < 100 nM | > 220 µL/min/mg | 100 to 220 µL/min/mg | – | – |
| O=C1c2c(cccc2-c2ccc(F)cc2)CN1CCc1cn2ccccc2n1 [Example 236, 7-(4-Fluoro-phenyl)-2-(2-imidazol[1,2-a]pyridin-2-yl-ethyl)-2,3-dihydro-isoindol-1-one] | 200 to 500 nM | 100 to 220 µL/min/mg | 100 to 220 µL/min/mg | – | – |
| O=C1c2c(cccc2N2CCNCC2)CN1CCc1ccc2ccccc2n1 [Example 102, 7-piperazin-1-yl-2-(2-quinolin-2-yl-ethyl)-2,3-dihydro-isoindol-1-one] | 200 to 500 nM | 100 to 220 µL/min/mg | < 100 µL/min/mg | – | – |
| O=C1c2c(cccc2NC2CNC2)CN1CCc1ccc2ccccc2n1 [Example 145, 7-(Azetidin-3-ylamino)-2-(2-quinolin-2-yl-ethyl)-2,3-dihydro-isoindol-1-one] | 200 to 500 nM | < 100 µL/min/mg | < 100 µL/min/mg | – | – |
| COc1ccc(-c2cccnc2)c2c1CN(CCc1cn3ccccc3n1)C2=O [Example 218, 2-(2-Imidazo[1,2-a]pyridin-2-yl-ethyl)-4-methoxy-7-pyridin-3-yl-2,3-dihydro-isoindol-1-one trifluoroacetate] | < 100 nM | < 100 µL/min/mg | < 100 µL/min/mg | – | – |
| O=C(O)C(F)(F)F.O=C(O)C(F)(F)F.O=C1c2c(-c3ccc(F)cc3)ccnc2CN1CCc1ccc2ccccc2n1 [Example 160, 4-(4-Fluoro-phenyl)-6-(2-quinolin-2-yl-ethyl)-6,7-dihydro-pyrrolo[3,4-b]pyridin-5-one (di trifluoroacetate)] | < 100 nM | – | – | ∘ (∘ not avialable or >220 μl min^−1 mg^−1) | + (+: 100-220 μl min^−1 mg^−1) |
| O=C1c2c(cccc2-c2ccc3nc[nH]c3c2)CN1CCc1cn2ccccc2n1 [Example 244, 7-(3H-Benzoimidazol-5-yl)-2-(2-imidazol[1,2-a]pyridin-2-yl-ethyl)-2,3-dihydro-isoindol-1-one] | 100 to 200 nM | < 100 µL/min/mg | < 100 µL/min/mg | – | – |
| Cn1nccc1-c1cccc2c1CN(CCc1ccc3ccccc3n1)C2=O [Example 202, 4-(2-Methyl-2H-pyrazol-3-yl)-2-(2-quinolin-2-yl-ethyl)-2,3-dihydro-isoindol-1-one trifluoroacetate] | < 100 nM | > 220 µL/min/mg | 100 to 220 µL/min/mg | – | – |
| O=C1c2cccc(N3CCS(=O)(=O)CC3)c2CN1CCc1ccc2ccccc2n1 [Example 131, 4-(1,1-Dioxo-1-thiomorpholin-4-yl)-2-(2-quinolin-2-yl-ethyl)-2,3-dihydro-isoindol-1-one] | 200 to 500 nM | < 100 µL/min/mg | < 100 µL/min/mg | – | – |
| COc1ccc(-c2cccnc2)c2c1CN(CCc1ccc3ccccc3n1)C2=O [Example 185, 4-Methoxy-7-pyridin-3-yl-2-(2-quinolin-2-yl-ethyl)-2,3-dihydro-isoindol-1-one trifluoroacetate] | < 100 nM | 100 to 220 µL/min/mg | > 220 µL/min/mg | – | – |
| Cc1cc(-c2ccnc3c2C(=O)N(CCc2ccc4ccccc4n2)C3)n(C)n1 [Example 334, 4-(2,5-Dimethyl-2H-pyrazol-3-yl)-6-(2-quinolin-2-yl-ethyl)-6,7-dihydro-pyrrolo[3,4-b]pyridin-5-one] | 100 to 200 nM | < 100 µL/min/mg | < 100 µL/min/mg | – | – |
| Cn1c(CCN2Cc3cccc(N4CCOCC4)c3C2=O)nc2ccccc21 [Example 153, 2-[2-(1-Methyl-1H-benzoimidazol-2-yl)-ethyl]-7-morpholin-4-yl-2,3-dihydro-isoindol-1-one] | < 100 nM | < 100 µL/min/mg | < 100 µL/min/mg | – | – |
| O=C1c2cccc(N3CCS(=O)(=O)CC3)c2C(=O)N1CCc1ccc2ccccc2n1 [Example 250, 4-(1,1-Dioxothiomorpholin-4-yl)-2-(2-quinolin-2-yl-ethyl)-isoindole-1,3-dione] | < 100 nM | > 220 µL/min/mg | 100 to 220 µL/min/mg | – | – |
| Cc1ccc(-c2cccc3c2C(=O)N(CCc2ccc4ccccc4n2)C3)cn1 [Example 91, 7-(6-Methyl-pyridin-3-yl)-2-(2-quinolin-2-yl-ethyl)-2,3-dihydro-isoindol-1-one] | < 100 nM | < 100 µL/min/mg | 100 to 220 µL/min/mg | – | – |
| O=C1c2c(cncc2-c2ccncc2)CN1CCc1ccc2ccccc2n1 [Example 2, 7-Pyridin-4-yl-2-(2-quinolin-2-yl-ethyl)-2,3-dihydro-pyrrolo[3,4-c]pyridin-1-one] | < 100 nM | 100 to 220 µL/min/mg | 100 to 220 µL/min/mg | – | – |
| O=C1c2c(-c3ccncc3)ccnc2CN1CCc1nc2ccccc2s1 [Example 375, 6-(2-Benzothiazol-2-yl-ethyl)-4-pyridin-4-yl-6,7-dihydro-pyrrolo[3,4-b]pyridin-5-one] | < 100 nM | < 100 µL/min/mg | < 100 µL/min/mg | – | – |

Second part, led by results:

| IC50 (PDE10A (human)) | microsomal CLint at 0.5 μM [1] | microsomal CLint at 0.5 μM [2] | Compound | Rat mCl (mikrosomal clearance) ([1]; rat liver microsomes, 0.5 μM test substance, 0.25 mg microsomal protein, pH 7.4, 37° C., NADPH) | Human mCl (mikrosomal clearance) ([2]; human liver microsomes, 0.5 μM test substance, 0.25 mg microsomal protein, pH 7.4, 37° C., NADPH) |
| --- | --- | --- | --- | --- | --- |
| < 100 nM | 100 to 220 µL/min/mg | < 100 µL/min/mg | O=C1c2c(N3CCC(C(F)F)C3)ccnc2CN1CCc1cn2ccccc2n1 (stereo not drawn) [compound 386, 4-[3-(Difluoromethyl)pyrrolidin-1-yl]-6-(2-imidazo[1,2-a]pyridin-2-ylethyl)-7H-pyrrolo[3,4-b]pyridin-5-one] | – | – |
| < 100 nM | > 220 µL/min/mg | < 100 µL/min/mg | COc1ccc(-c2cc[nH]n2)c2c1C(=O)N(CCc1nc3ccccc3s1)C2 [compound 400, 2-[2-(1,3-Benzothiazol-2-yl)ethyl]-7-methoxy-4-(1H-pyrazol-3-yl)isoindolin-1-one] | – | – |
| < 100 nM | 100 to 220 µL/min/mg | < 100 µL/min/mg | O=C1c2c(-c3ccoc3)ccnc2CN1CCc1cn2cc(F)ccc2n1 [compound 526, 6-[2-(6-Fluoroimidazo[1,2-a]pyridin-2-yl)ethyl]-4-(3-furyl)-7H-pyrrolo[3,4-b]pyridin-5-one] | – | – |
| < 100 nM | > 220 µL/min/mg | < 100 µL/min/mg | Cc1nc(CCN2Cc3nccc(N4CCOCC4)c3C2=O)sc1C [compound 519, 6-[2-(4,5-Dimethylthiazol-2-yl)ethyl]-4-morpholino-7H-pyrrolo[3,4-b]pyridin-5-one] | – | – |
| < 100 nM | 100 to 220 µL/min/mg | < 100 µL/min/mg | O=C1c2c(N3CCOCC3)ccnc2CN1CCc1nc(C2CC2)cs1 [compound 518, 6-[2-(4-Cyclopropylthiazol-2-yl)ethyl]-4-morpholino-7H-pyrrolo[3,4-b]pyridin-5-one] | – | – |
| 200 to 500 nM | 100 to 220 µL/min/mg | 100 to 220 µL/min/mg | O=C1c2c(cccc2N2CCOCC2)CN1CCc1nc2ccccc2n1C(F)F [compound 449, 2-[2-(1-Difluoromethyl-1H-benzoimidazol-2-yl)-ethyl]-7-morpholin-4-yl-2,3-dihydro-isoindol-1-one trifluoroacetate] | – | – |
| < 100 nM | < 100 µL/min/mg | < 100 µL/min/mg | O=C1c2c(-c3cccnc3)ccnc2CN1CCc1nc2ccccc2s1 [compound 430, 6-[2-(1,3-Benzothiazol-2-yl)ethyl]-4-(3-pyridyl)-7H-pyrrolo[3,4-b]pyridin-5-one trifluoroacetate] | – | – |
| < 100 nM | < 100 µL/min/mg | < 100 µL/min/mg | COC(=O)C1CN(Cc2cccc3c2C(=O)N(CCc2ccc4ccccc4n2)C3)C1 [compound 531, 1-[3-Oxo-2-(2-quinolin-2-yl-ethyl)-2,3-dihydro-1H-isoindol-4-ylmethyl]-azetidine-3-carboxylic acid methyl ester] | – | – |
| < 100 nM | < 100 µL/min/mg | < 100 µL/min/mg | O=C1c2c(OCF)ccc(-c3cncnc3)c2C(=O)N1CCc1cn2ccccc2n1 [compound 545, 4-(Fluoromethoxy)-2-(2-imidazo[1,2-a]pyridin-2-ylethyl)-7-pyrimidin-5-yl-isoindoline-1,3-dione] | – | – |
| 200 to 500 nM | > 220 µL/min/mg | 100 to 220 µL/min/mg | Cc1cnc(CCN2Cc3nccc(-c4ccncc4)c3C2=O)cc1C [compound 507, 6-[2-(4,5-Dimethyl-2-pyridyl)ethyl]-4-(4-pyridyl)-7H-pyrrolo[3,4-b]pyridin-5-one trifluoroacetate] | – | – |
| < 100 nM | < 100 µL/min/mg | < 100 µL/min/mg | O=C1c2c(-c3ccncc3)ccnc2CN1CCc1cn2cc(F)ccc2n1 [compound 494, 6-[2-(6-Fluoroimidazo[1,2-a]pyridin-2-yl)ethyl]-4-(4-pyridyl)-7H-pyrrolo[3,4-b]pyridin-5-one trifluoroacetate] | – | – |
